Assay results as given in paper PMC11111404, “Discovery of potent small-molecule inhibitors of lipoprotein(a) formation” (Nature, 2024).
Several values for one entry are separate records, joined by “and”; a condition that tells them apart may be missing. Identical values can stand only once.

Experiments:
apo(a) KIV8 = molecular target: T1, apo(a) KIV8 (Homo sapiens, UniProt P08519); experiment: ITC binding to apo(a) KIV8
T1 construct: made in house
T1 sequence (P08519 1387-1465 limits assumed): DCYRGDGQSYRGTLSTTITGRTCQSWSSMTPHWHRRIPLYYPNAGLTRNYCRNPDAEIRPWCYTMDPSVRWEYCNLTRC
Description: The nucleotide sequence encoding the human LPA gene (NP_005568.2) was inserted into a mammalian expression vector containing a cytomegalovirus promoter. Protein expression was performed by transient transfection of human embryonic kidney 293 (HEK293) cells cultured in serum-free medium. The culture medium was collected five days after transfection and human apo(a) protein was purified using L-lysine affinity chromatography. Nucleotide sequences encoding various KIV domains of human apo(a) and human and rat plasminogen were inserted into a pET21a Escherichia coli expression vector. Bacterial BL21(DE3) was used as the expression host, and the induction of protein expression was performed in 2× TY medium with 1 mM isopropyl β-D-1-thiogalactopyranoside at 37 °C for 5 h. Cells were collected and stored at –80 °C for subsequent protein purification and refolding. […] All protein concentrations were determined by A280.
Experiments were performed on a MicroCal Auto-iTC200 titration calorimeter (Malvern Panalytical), with a cell volume of 200 μl and a 40-μl microsyringe. […] The microsyringe was loaded with a solution of the respective compounds, with the concentration measured by quantitative nuclear magnetic resonance, and was inserted into the calorimetric cell prefilled with the respective recombinant proteins of known concentration in ITC buffer. […]

[1] = molecular target: T2, Lp(a) assembly (recombinant human 16K apo(a) and apoB) (Homo sapiens, UniProt P08519); experiment: In vitro Lp(a) assembly assay; assay type: biochemical
T2 construct: containing one KIV type 1, six KIV type 2 repeats, one each of KIV types 3–10 and one KV; expressed in transfected cells; host or cells: Conditioned medium of HEK293 (CRL-1573) stably expressing 16K apo(a), combined with conditioned medium of wild-type HepG2 (HB-8065) for endogenous apoB
Description: HepG2 cells (HB-8065, ATCC) were cultured in Dulbecco’s modified Eagle’s medium, supplemented with 10% fetal bovine serum, 20 mM 4-(2-hydroxyethyl)-1-piperazineethanesulfonic acid (HEPES) and 100 U ml^−1 penicillin–streptomycin. apoB-conditioned media were collected after 24 h of culture at 37 °C and 5% CO2 from confluent wild-type HepG2 cells that endogenously express and secrete apoB. Apo(a)-conditioned media were collected after 24 h of culture at 37 °C and 5% CO2 from HEK293 cells (CRL-1573, ATCC) that stably express and secrete recombinant human 16K apo(a) protein containing one KIV type 1, six KIV type 2 repeats, one each of KIV types 3–10 and one KV.
The assembly assay was conducted in 96-well polypropylene plates by combining HepG2 and apo(a)-HEK293-conditioned media in the presence of a range of compound concentrations. After a two-hour incubation period at 37 °C, the reaction was stopped by the addition of 6-aminocaproic acid. Lp(a) was detected using a sandwich enzyme-linked immunosorbent assay (ELISA), with a polyclonal goat anti-apo(a) capture antibody (Abcam ab31675) and a biotin-conjugated, polyclonal goat anti-apoB detection antibody (Abcam ab20898). In brief, ELISA plates were coated with 100 μl of the capture antibody at a 1:12,500 dilution (around 4 μg ml^−1) into HEPES-buffered saline (HBS), incubated overnight at 4 °C, washed and blocked by the addition of 200 μl of 1% casein. After removal of the blocking buffer, 20 μl of each of the assembly reactions or of a dilution series of purified human Lp(a) (Athens Research, 12-16-121601), diluted 1:5 into HBS supplemented with 0.5% casein, were added to the ELISA plate. […] Absorbance at 450 nm was measured on an Envision plate reader.
The concentration of Lp(a) formed in each test condition was determined on the basis of the standard curve constructed from the purified human Lp(a) used as a reference standard, and was normalized to high (buffer) and low (no apoB) controls. […] Data were analysed in GraphPad Prism v.9.5.1.

plasminogen = molecular target: T3, plasminogen (Rattus norvegicus, UniProt Q01177); experiment: Rat plasma plasminogen concentration (ELISA) after oral dosing; assay type: in vivo; settings: for PLG mass, Plasminogen (mean of replicates) / PLG mass, Replicate 1 / PLG mass, Replicate 2: rat plasma, individual animal
T3 construct: Plasma samples were collected via the abdominal aorta; from tissue; host or cells: Citrated plasma of orally dosed male Sprague Dawley rats
Description: Male Sprague Dawley rats (Charles River, average body weight 310 g, aged eight to nine weeks old) were housed in cages with a standard light cycle (12-h light, 12-h dark), at room temperature (22 ± 4 °C), with a relative humidity of 30–70%. Rats were identified by numbers on the cage cards. After arrival, rats were fed on a normal diet (Harlan Teklad diet 2014) and randomized to treatment groups (n = 5 per group) by baseline plasma plasminogen concentration and activity using a BRAT. LSN3441732 and LY3473329 were administered QD orally at three dose levels (3.7, 12.3 and 37 mg kg^−1; 3.2, 10.5 and 31.6 mg kg^−1 per dose, respectively) or vehicle (10 ml kg^−1, 1% HEC, 0.25% Tween-80, Antifoam) for four days. Terminal blood was drawn under general anaesthesia 24 h after the day-4 oral dose. Plasma samples were collected via the abdominal aorta into a premeasured anticoagulant BD Vacutainer used for blood collection (2.7 ml, buffered sodium citrate). The liver was flash frozen in liquid nitrogen. To measure plasminogen activity, 100 µl plasma per well was added to a 96-well plate (Corning) and the following were added to the indicated concentrations: 7.5 mM CaCl2 and 117 mM NaCl. Wells were mixed and warmed to 37 °C. Urokinase (Millipore) was added at 125 U per well and the plate was incubated at 37 °C for 4 min. The plasminogen substrate Chromogenix S-2251 (DiaPharma) was added to a concentration of 3.3 mM. The mixture was added and the plate was sealed and placed in a prewarmed plate reader, shaken, and the absorbance read every 30 s for 2 h. The maximum slope for each curve was determined and the percentage inhibition was calculated relative to untreated controls. Plasminogen protein was measured using ELISA kits for rat (Abcam ab157740) according to the manufacturer’s instructions. Plasminogen activity (percentage) and mass (µg ml^−1) in rat were analysed by ANOVA in JMP 16.1.0. The percentage reduction of plasminogen activity and mass for each treated group was compared with vehicle by Dunnett’s method.

[2] = 3441732 dose 3.7 mpk, 3.7 mg/kg
[3] = 3441732 dose 12.3 mpk, 12.3 mg/kg
[4] = 3473329 dose 3.2 mpk, 3.2 mg/kg
[5] = 3473329 dose 10.5 mpk, 10.5 mg/kg
[6] = 3473329 dose 31.6 mpk, 31.6 mg/kg

T3 sequence (Q01177 20-812 limits assumed): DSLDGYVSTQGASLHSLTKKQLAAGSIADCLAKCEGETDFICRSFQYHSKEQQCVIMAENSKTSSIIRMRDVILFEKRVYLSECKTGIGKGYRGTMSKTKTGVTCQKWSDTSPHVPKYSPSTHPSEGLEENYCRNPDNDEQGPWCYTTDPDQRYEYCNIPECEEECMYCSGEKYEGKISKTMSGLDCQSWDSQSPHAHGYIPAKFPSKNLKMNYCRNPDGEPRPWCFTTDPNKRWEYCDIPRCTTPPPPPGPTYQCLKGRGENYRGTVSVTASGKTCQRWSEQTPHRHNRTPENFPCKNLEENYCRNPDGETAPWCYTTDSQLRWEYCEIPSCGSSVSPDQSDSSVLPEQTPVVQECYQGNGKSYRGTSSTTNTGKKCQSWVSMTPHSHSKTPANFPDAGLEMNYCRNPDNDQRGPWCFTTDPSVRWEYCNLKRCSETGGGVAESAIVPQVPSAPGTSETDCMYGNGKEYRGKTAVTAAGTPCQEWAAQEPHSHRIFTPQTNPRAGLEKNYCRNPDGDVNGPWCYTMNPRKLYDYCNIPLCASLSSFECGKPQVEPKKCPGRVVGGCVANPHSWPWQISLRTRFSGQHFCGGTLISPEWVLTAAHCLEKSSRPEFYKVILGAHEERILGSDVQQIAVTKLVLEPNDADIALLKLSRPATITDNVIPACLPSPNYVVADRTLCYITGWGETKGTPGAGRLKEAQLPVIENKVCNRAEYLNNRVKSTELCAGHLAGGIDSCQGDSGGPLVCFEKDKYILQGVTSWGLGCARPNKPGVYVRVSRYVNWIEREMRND
T2 sequence (P08519 20-2040): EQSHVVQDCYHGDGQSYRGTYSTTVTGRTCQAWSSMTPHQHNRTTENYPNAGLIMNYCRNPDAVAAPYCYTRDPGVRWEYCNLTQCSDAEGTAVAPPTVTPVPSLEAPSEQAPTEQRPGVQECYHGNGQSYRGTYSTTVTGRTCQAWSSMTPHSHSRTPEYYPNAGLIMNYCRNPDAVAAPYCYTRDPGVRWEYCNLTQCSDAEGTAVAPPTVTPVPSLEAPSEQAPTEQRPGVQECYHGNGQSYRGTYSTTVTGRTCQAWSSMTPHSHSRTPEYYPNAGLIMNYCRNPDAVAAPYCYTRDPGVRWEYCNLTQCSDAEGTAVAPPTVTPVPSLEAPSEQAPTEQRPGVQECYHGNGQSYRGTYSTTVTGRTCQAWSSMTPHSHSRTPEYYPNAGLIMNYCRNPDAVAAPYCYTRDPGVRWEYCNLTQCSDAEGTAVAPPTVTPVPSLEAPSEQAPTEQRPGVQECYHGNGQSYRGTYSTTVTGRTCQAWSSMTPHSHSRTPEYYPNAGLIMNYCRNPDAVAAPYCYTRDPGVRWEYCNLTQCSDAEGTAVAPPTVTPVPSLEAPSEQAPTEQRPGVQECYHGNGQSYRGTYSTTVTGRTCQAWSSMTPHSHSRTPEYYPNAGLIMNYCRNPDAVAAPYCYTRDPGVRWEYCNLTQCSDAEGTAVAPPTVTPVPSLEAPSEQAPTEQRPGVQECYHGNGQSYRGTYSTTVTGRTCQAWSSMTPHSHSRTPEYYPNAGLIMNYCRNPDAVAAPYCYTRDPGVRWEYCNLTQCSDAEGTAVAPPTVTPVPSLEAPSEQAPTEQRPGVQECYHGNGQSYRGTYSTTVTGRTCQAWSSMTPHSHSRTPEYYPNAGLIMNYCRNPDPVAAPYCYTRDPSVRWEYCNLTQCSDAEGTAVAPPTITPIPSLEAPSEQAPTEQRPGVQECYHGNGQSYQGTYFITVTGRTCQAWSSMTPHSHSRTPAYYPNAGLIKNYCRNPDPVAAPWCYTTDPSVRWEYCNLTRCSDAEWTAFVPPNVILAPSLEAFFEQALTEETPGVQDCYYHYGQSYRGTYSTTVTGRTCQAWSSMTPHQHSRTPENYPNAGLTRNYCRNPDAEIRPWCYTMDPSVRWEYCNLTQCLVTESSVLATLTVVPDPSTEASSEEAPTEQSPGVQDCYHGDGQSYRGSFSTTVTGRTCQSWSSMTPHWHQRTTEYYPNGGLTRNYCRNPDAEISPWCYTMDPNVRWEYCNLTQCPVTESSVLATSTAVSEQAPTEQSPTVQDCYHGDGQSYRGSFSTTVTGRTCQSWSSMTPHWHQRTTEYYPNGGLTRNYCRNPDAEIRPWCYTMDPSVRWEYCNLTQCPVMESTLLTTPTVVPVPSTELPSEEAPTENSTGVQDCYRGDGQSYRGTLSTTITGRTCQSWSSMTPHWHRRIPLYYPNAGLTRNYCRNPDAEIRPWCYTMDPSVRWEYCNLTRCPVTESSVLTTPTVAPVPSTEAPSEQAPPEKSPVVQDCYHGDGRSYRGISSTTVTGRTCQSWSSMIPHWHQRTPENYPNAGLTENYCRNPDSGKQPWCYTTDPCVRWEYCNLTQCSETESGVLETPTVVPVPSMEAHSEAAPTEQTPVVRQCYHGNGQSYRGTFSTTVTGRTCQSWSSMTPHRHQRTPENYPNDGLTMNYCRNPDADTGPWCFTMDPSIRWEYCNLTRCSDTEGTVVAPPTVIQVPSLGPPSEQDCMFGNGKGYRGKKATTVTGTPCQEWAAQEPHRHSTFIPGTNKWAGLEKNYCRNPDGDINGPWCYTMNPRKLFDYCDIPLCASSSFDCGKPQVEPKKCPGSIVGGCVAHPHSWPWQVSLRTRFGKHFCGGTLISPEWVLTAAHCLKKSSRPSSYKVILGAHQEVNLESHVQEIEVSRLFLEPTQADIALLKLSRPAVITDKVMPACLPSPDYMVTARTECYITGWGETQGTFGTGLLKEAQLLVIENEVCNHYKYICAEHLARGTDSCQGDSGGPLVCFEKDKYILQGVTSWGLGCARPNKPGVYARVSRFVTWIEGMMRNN

`Cl.Cl.O=C(Nc1cccc(C[C@H](C(=O)O)[C@H]2CCNC2)c1)Nc1cccc(C[C@H](C(=O)O)[C@H]2CCNC2)c1` [LSN3441732] was tested, and the Kd (apo(a) KIV8) was < 10 nM, the IC50 [1] was 0.18 nM and the “PLG mass, Plasminogen (mean of replicates)” value (“PLG mass, Plasminogen” for short) (plasminogen; [2]) was 199.7 µg/mL and 188.1 µg/mL and 194.6 µg/mL and 164.2 µg/mL and 177.8 µg/mL. For the same compound, the “PLG mass, Replicate 1” value (plasminogen; [2]) was 193.976 µg/mL and 187.308 µg/mL and 191.488 µg/mL and 158.900 µg/mL and 169.900 µg/mL, the “PLG mass, Replicate 2” value (plasminogen; [2]) was 205.500 µg/mL and 188.992 µg/mL and 197.772 µg/mL and 169.500 µg/mL and 185.664 µg/mL and the “PLG mass, Plasminogen” value (plasminogen; [3]) was 192.7 µg/mL and 158.1 µg/mL and 151.7 µg/mL and 134.6 µg/mL and 119.3 µg/mL. The “PLG mass, Replicate 1” value (plasminogen; [3]) was 187.144 µg/mL and 151.612 µg/mL and 145.376 µg/mL and 127.920 µg/mL and 115.472 µg/mL, the “PLG mass, Replicate 2” value (plasminogen; [3]) was 198.344 µg/mL and 164.496 µg/mL and 157.928 µg/mL and 141.248 µg/mL and 123.088 µg/mL and the “PLG mass, Plasminogen” value (plasminogen; 3441732 dose 37 mpk, 37 mg/kg) was 113.7 µg/mL and 124.7 µg/mL and 116.9 µg/mL and 125.1 µg/mL and 127.8 µg/mL. For the same compound, the “PLG mass, Replicate 1” value (plasminogen; 3441732 dose 37 mpk, 37 mg/kg) was 111.012 µg/mL and 118.768 µg/mL and 109.952 µg/mL and 121.004 µg/mL and 125.228 µg/mL, the “PLG mass, Replicate 2” value (plasminogen; 3441732 dose 37 mpk, 37 mg/kg) was 116.416 µg/mL and 130.704 µg/mL and 123.756 µg/mL and 129.140 µg/mL and 130.432 µg/mL and the “plasma levels of plasminogen protein” value (plasminogen; rats, oral dosing) was “decreased in a dose-dependent manner”.
`O=C(O)[C@@H](Cc1cccc(CN(Cc2cccc(C[C@H](C(=O)O)[C@H]3CCNC3)c2)Cc2cccc(C[C@H](C(=O)O)[C@H]3CCNC3)c2)c1)[C@H]1CCNC1` [LY3473329] was tested, and the Kd (apo(a) KIV8) was 22 nM, the IC50 [1] was 0.09 nM and the “PLG mass, Plasminogen” value (plasminogen; [4]) was 281.7 µg/mL and 301.7 µg/mL and 249.5 µg/mL and 274.1 µg/mL and 246.9 µg/mL. For the same compound, the “PLG mass, Replicate 1” value (plasminogen; [4]) was 275.600 µg/mL and 301.472 µg/mL and 251.100 µg/mL and 270.384 µg/mL and 245.604 µg/mL, the “PLG mass, Replicate 2” value (plasminogen; [4]) was 287.828 µg/mL and 301.932 µg/mL and 247.992 µg/mL and 277.820 µg/mL and 248.160 µg/mL and the “PLG mass, Plasminogen” value (plasminogen; [5]) was 239.9 µg/mL and 236.1 µg/mL and 242.7 µg/mL and 225.5 µg/mL and 223.8 µg/mL. For the same compound, the “PLG mass, Replicate 1” value (plasminogen; [5]) was 241.392 µg/mL and 228.556 µg/mL and 235.352 µg/mL and 212.812 µg/mL and 213.952 µg/mL, the “PLG mass, Replicate 2” value (plasminogen; [5]) was 238.436 µg/mL and 243.736 µg/mL and 249.956 µg/mL and 238.240 µg/mL and 233.564 µg/mL and the “PLG mass, Plasminogen” value (plasminogen; [6]) was 199.2 µg/mL and 187.7 µg/mL and 187.4 µg/mL and 229.5 µg/mL and 225.0 µg/mL. The “PLG mass, Replicate 1” value (plasminogen; [6]) was 197.560 µg/mL and 179.928 µg/mL and 183.640 µg/mL and 229.888 µg/mL and 216.732 µg/mL and the “PLG mass, Replicate 2” value (plasminogen; [6]) was 200.844 µg/mL and 195.380 µg/mL and 191.112 µg/mL and 229.028 µg/mL and 233.256 µg/mL.
